# Source: patent EP2951180B1, “2,6,7,8 SUBSTITUTED PURINES AS HDM2 INHIBITORS” (Merck Sharp & Dohme Corp., priority 2013, dated 2014)
# Molecular target: T1, HDM2 (Homo sapiens, UniProt Q00987)
# T1 construct: Thioredoxin (N); made in house; host or cells: E. coli strain BL21(DE3)Rosetta
# Test: FRET assay (HDM2 inhibition; method not described in this part)
# Format: binding
# Details: Table 1
# T1 sequence (Q00987 17-125): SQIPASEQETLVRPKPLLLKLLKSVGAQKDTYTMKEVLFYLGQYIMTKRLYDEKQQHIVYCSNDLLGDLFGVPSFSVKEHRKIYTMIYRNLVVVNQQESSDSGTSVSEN
row,Structure (SMILES),IC50 [nM]
1,"CCC(C)c1ccnc(-c2nc3nc(C(=O)O)nc(N[C@H](C)C4CCC4)c3n2Cc2ccc(C(F)(F)F)cc2)c1 (single isomer, unassigned) [Example 1.14]",3.65
2,"CCC(C)c1ccnc(-c2nc3nc(C(=O)O)nc(N[C@H](C)C4CCC4)c3n2Cc2ccc(C(F)(F)F)cc2)c1 (single isomer, unassigned) [Example 1.15]",3.32
3,"C[C@@H](Nc1nc(C(=O)O)nc2nc(-c3cc(N(C)C)ccc3OC(F)(F)F)n(Cc3ccc(C(F)(F)F)cc3)c12)C1CCC1 [Example 1.1, (R)-6-((1-cyclobutylethyl)amino)-8-(5-(dimethylamino)-2-(trifluoromethoxy)phenyl)-7-(4-(trifluoromethyl)benzyl)-7H-purine-2-carboxylic acid]",11.4
4,"CCc1ccc(Cl)c(-c2nc3nc(C(=O)O)nc(N[C@H](C)C4CCC4)c3n2Cc2ccc(C(F)(F)F)cc2)c1 [Example 1.2, (R)-8-(2-chloro-5-ethylphenyl)-6-((1-cyclobutylethyl)amino)-7-(4-(trifluoromethyl)benzyl)-7H-purine-2-carboxylic acid]",23.7
5,"CC(C)c1ccc(OC(F)(F)F)c(-c2nc3nc(C(=O)O)nc(N[C@H](C)C4CCC4)c3n2Cc2ccc(C(F)(F)F)c(F)c2)c1 [Example 1.3, (R)-6-((1-cyclobutylethyl)amino)-7-(3-fluoro-4-(trifluoromethyl)benzyl)-8-(5-isopropyl-2-(trifluoromethoxy)phenyl)-7H-purine-2-carboxylic acid]",15.2
6,"CC(C)c1cc(-c2nc3nc(C(=O)O)nc(N[C@H](C)C4CCC4)c3n2Cc2ccc(C(F)(F)F)cc2)ccn1 [Example 1.4, (R)-6-((1-cyclobutylethyl)amino)-8-(2-isopropylpyridin-4-yl)-7-(4-(trifluoromethyl)benzyl)-7H-purine-2-carboxylic acid]",58.8
7,"C=C(C)c1cc(C)nc(-c2nc3nc(C(=O)O)nc(N[C@H](C)C4CCC4)c3n2Cc2ccc(C(F)(F)F)cc2)c1 [Example 1.5, (R)-6-((1-cyclobutylethyl)amino)-8-(6-methyl-4-(prop-1-en-2-yl)pyridin-2-yl)-7-(4-(trifluoromethyl)benzyl)-7H-purine-2-carboxylic acid]",50.2
8,"CC(C)c1ccnc(-c2nc3nc(C(=O)O)nc(N[C@H](C)C4CCC4)c3n2Cc2ccc(Cl)c(F)c2)c1 [Example 1.6, 7-(4-chloro-3-fluorobenzyl)-6-{[(1R)-1-cyclobutylethyl]amino}-8-[4-(propan-2-yl)pyridin-2-yl]-7H-purine-2-carboxylic acid]",2.79
9,"CC(C)c1ccnc(-c2nc3nc(C(=O)O)nc(N[C@H](C)C4CCC4)c3n2Cc2ccc(C(F)(F)F)s2)c1 [Example 1.7, 6-{[(1R)-1-cyclobutylethyl]amino}-8-[4-(propan-2-yl)pyridin-2-yl]-7-{[5-(trifluoromethyl)thiophen-2-yl]methyl}-7H-purine-2-carboxylic acid]",26.9
10,"C[C@@H](Nc1nc(C(=O)O)nc2nc(-c3cc(C(O)c4ccccc4)ccn3)n(Cc3ccc(C(F)(F)F)cc3)c12)C1CCC1 (stereo partly drawn) [Example 1.8, 6-(((R)-1-cyclobutylethyl)amino)-8-(4-(hydroxy(phenyl)methyl)pyridin-2-yl)-7-(4-(trifluoromethyl)benzyl)-7H-purine-2-carboxylic acid]",20.1
11,"C[C@@H](Nc1nc(C(=O)O)nc2nc(-c3cc(Cc4ccccc4)ccn3)n(Cc3ccc(C(F)(F)F)cc3)c12)C1CCC1 [Example 1.9, (R)-8-(4-benzylpyridin-2-yl)-6-((1-cyclobutylethyl)amino)-7-(4-(trifluoromethyl)benzyl)-7H-purine-2-carboxylic acid]",37.4

# Molecular target: T1, HDM2
# Test: HDM2 FRET assay (inhibition of binding of FITC labeled p53-pocket peptide to HDM2)
# Details: 0.5 nM HDM2 (residues 17 to 125), 3nM peptide, two hour incubation at room temperature; read-out: FRET IC50
# How it was run: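 TR-FRET with 0.5 nM His-tagged recombinant HDM2, 3 nM FITC-labelled p53 peptide and 0.25 nM Tb-anti-His antibody in PBS, 0.01% BSA, 0.01% Tween-20, 0.1% DMSO. IC50 from em520/em495 ratio over 10-point dilutions, 4-parameter logistic fit.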
row,Structure (SMILES),IC50 [nM]
1,"C[C@H]1CC[C@H](Cn2c(C3CC3)nc3nc(-c4n[nH]c(=O)o4)nc(-c4cccc(Cl)c4)c32)CC1 [Example 24.1, 5-{6-(3-chlorophenyl)-8-cyclopropyl-7-[(trans-4-methylcyclohexyl)methyl]-7H-purin-2-yl}-1,3,4-oxadiazol-2(3H)-one]",62.8
2,"C[C@H]1CC[C@H](Cn2c(C3CC3)nc3nc(-c4noc(=O)[nH]4)nc(-c4cccc(Cl)c4)c32)CC1 [Example 24.2, 3-{6-(3-chlorophenyl)-8-cyclopropyl-7-[(trans-4-methylcyclohexyl)methyl]-7H-purin-2-yl}-1,2,4-oxadiazol-5(4H)-one]",41.7

# Same assay, conditions: Table 23; read-out: FRET IC50
row,Structure (SMILES),IC50 [nM]
1,"C[C@H]1CC[C@H](Cn2c(C3(F)CCCCC3)nc3nc(-c4n[nH]c(=O)o4)nc(-c4cncc(Cl)c4)c32)CC1 [Example 23.56, 5-{6-(5-chloropyridin-3-yl)-8-(1-fluorocyclohexyl)-7-[(trans-4-methylcyclohexyl)methyl] -7H-purin-2-yl}-1,3,4-oxadiazol-2(3H)-one]",10.7
2,"COC1(c2nc3nc(-c4noc(=O)[nH]4)nc(-c4cncc(Cl)c4)c3n2C[C@H]2CC[C@H](C)CC2)CCC1 [Example 23.62, 3-{6-(5-chloropyridin-3-yl)-8-(1-methoxycyclobutyl)-7-[(trans-4-methylcyclohexyl)methyl] -7H-purin-2-yl}-1,2,4-oxadiazol-5(4H)-one]",13.1
3,"COC1(c2nc3nc(-c4noc(=O)[nH]4)nc(-c4cncc(Cl)c4)c3n2C[C@H]2CC[C@H](C)CC2)COC1 [Example 23.70, 3-{6-(5-chloropyridin-3-yl)-8-(3-methoxyoxetan-3-yl)-7-[(trans-4-methylcyclohexyl)methyl] -7H-purin-2-yl}-1,2,4-oxadiazol-5(4H)-one]",9.44
4,"COC1(c2nc3nc(-c4noc(=O)[nH]4)nc(-c4cncc(Cl)c4)c3n2C[C@H]2CC[C@H](C)CC2)CCCCC1 [Example 23.75, 3-{6-(5-chloropyridin-3-yl)-8-(1-methoxycyclohexyl)-7-[(trans-4-methylcyclohexyl)methyl] -7H-purin-2-yl}-1,2,4-oxadiazol-5(4H)-one]",30.7
5,"COC1(c2nc3nc(-c4n[nH]c(=O)o4)nc(-c4cncc(Cl)c4)c3n2C[C@H]2CC[C@H](C)CC2)CCCCC1 [Example 23.76, 5-{6-(5-chloropyridin-3-yl)-8-(1-methoxycyclohexyl)-7-[(trans-4-methylcyclohexyl)methyl] -7H-purin-2-yl}-1,3,4-oxadiazol-2(3H)-one]",14.1
6,"COC1(c2nc3nc(-c4noc(=O)[nH]4)nc(-c4cncc(Cl)c4)c3n2C[C@H]2CC[C@H](C)CC2)CCCC1 [Example 23.77, 3-{6-(5-chloropyridin-3-yl)-8-(1-methoxycyclopentyl)-7-[(trans-4-methylcyclohexyl)methyl] -7H-purin-2-yl}-1,2,4-oxadiazol-5(4H)-one]",8.06
7,"C[C@H]1CC[C@H](Cn2c(C3(c4ccccc4F)CC3)nc3nc(-c4noc(=O)[nH]4)nc(-c4cncc(Cl)c4)c32)CC1 [Example 23.100, 3-{6-(5-chloropyridin-3-yl)-8-[1-(2-fluorophenyl)cyclopropyl] -7-[(trans-4-methylcyclohexyl)methyl] -7H-purin-2-yl}-1,2,4-oxadiazol-5(4H)-one]",5.94
8,"Cc1ocnc1C1(c2nc3nc(-c4noc(=O)[nH]4)nc(-c4cccc(Cl)c4)c3n2C[C@H]2CC[C@H](C)CC2)CC1 [Example 23.101, 3-{6-(3-chlorophenyl)-7-[(trans-4-methylcyclohexyl)methyl]-8-[1-(5-methyl-1,3-oxazol-4-yl)cyclopropyl]-7H-purin-2-yl}-1,2,4-oxadiazol-5(4H)-one]",30.1
9,"C[C@H]1CC[C@H](Cn2c(C3(c4ccccn4)CC3)nc3nc(-c4nc(=O)o[nH]4)nc(-c4cccc(Cl)c4)c32)CC1 [Example 23.102, 3-[6-(3-chlorophenyl)-7-[(trans-4-methylcyclohexyl)methyl] -8-(1-pyridin-2-ylcyclopropyl)-7H-purin-2-yl]-1,2,4-oxadiazol-5(2H)-one]",17

# Same assay, conditions: Table 25; read-out: FRET IC50
row,Structure (SMILES),IC50 [nM]
1,"C[C@H]1CC[C@H](Cn2c(N3CCOC[C@H]3c3ccccc3)nc3nc(-c4noc(=O)[nH]4)nc(-n4cc(Cl)ccc4=O)c32)CC1 [Example 25.1, 5-chloro-1-{7-[(trans-4-methylcyclohexyl)methyl]-2-(5-oxo-4,5-dihydro-1,2,4-oxadiazol-3-yl)-8-[(3R)-3-phenylmorpholin-4-yl]-7H-purin-6-yl}pyridin-2(1H)-one]",1.01
2,"C[C@H]1CC[C@H](Cn2c(N3CCOC[C@H]3c3ccccc3)nc3nc(-c4noc(=O)[nH]4)nc(Oc4ccc(Cl)cn4)c32)CC1 [Example 25.2, 3-{6-[(5-chloropyridin-2-yl)oxy]-7-[(trans-4-methylcyclohexyl)methyl]-8-[(3R)-3-phenylmorpholin-4-yl]-7H-purin-2-yl}-1,2,4-oxadiazol-5(4H)-one]",15.4
3,"C[C@H]1CC[C@H](Cn2c(N3CCOC[C@H]3c3ccccc3)nc3nc(-c4n[nH]c(=O)o4)nc(Oc4ccc(Cl)cn4)c32)CC1 [Example 25.3, 5-{6-[(5-chloropyridin-2-yl)oxy]-7-[(trans-4-methylcyclohexyl)methyl]-8-[(3R)-3-phenylmorpholin-4-yl]-7H-purin-2-yl}-1,3,4-oxadiazol-2(3H)-one]",20.1

# Same assay, conditions: Table 26; read-out: FRET IC50
row,Structure (SMILES),IC50 [nM]
1,"C[C@@H]1COCCN1c1nc2nc(CC(=O)O)nc(-c3cccc(Cl)c3)c2n1C[C@H]1CC[C@H](C)CC1 [Example 26.2, {6-(3-chlorophenyl)-7-[(trans-4-methylcyclohexyl)methyl]-8-[(3R)-3-methylmorpholin-4-yl]-7H-purin-2-yl} acetic acid]",783
2,"CC1CN(c2nc(-c3noc(=O)[nH]3)nc3nc(N4CCOC[C@H]4c4ccccc4)n(C[C@H]4CC[C@H](C)CC4)c23)CCO1 (stereo partly drawn) [Example 26.3, 3-{7-[(trans-4-methylcyclohexyl)methyl]-6-(2-methylmorpholin-4-yl)-8-[(3R)-3-phenylmorpholin-4-yl]-7H-purin-2-yl}-1,2,4-oxadiazol-5(4H)-one]",14.5
